Assay results taken from patent US20210179586A1, “SOLID STATE FORMS OF BRANAPLAM AND THEIR PREPARATION” (TEVA PHARMACEUTICALS INTERNATIONAL GMBH, priority 2018, published 2021).
Counter-ions that a name gives are not always drawn. Values belong to the compound of their own block, whether it stands above or below them.

How the values were obtained:
[1] = Solid state (polymorphic) stability of crystalline forms on storage, humidity, heat, pressure or grinding; assay type: physicochemical; details: for stability (conversion to any other solid state form): 'stable' as defined in b57: less than 20% conversion at 60% RH/RT or 75% RH/40° C. for at least 1 month, or at 80-100% RH 7 days, 100° C. 30 minutes, 3 Ton 1 minute, strong grinding
Method: As used herein the term “stable” in relation to crystalline Branaplam and salts thereof refers to less than 20%, less than 10%, less than 5%, less than 2%, less than 1%, or less than 0.5% conversion of crystalline Branaplam and salts thereof to any other solid state form of Branaplam when kept in storage for long term stability e.g. 60% RH/RT or 75% RH/40° C. for at least 1 month. Alternatively, crystalline Branaplam and salts thereof are stable when exposed to high humidity e.g. 80-100% RH for 7 days, high temperature e.g. 100° C. for 30 minutes, high mass pressure e.g. 3 Ton for 1 minute or upon strong grinding.

[2] = Hygroscopicity: water absorption at 80% RH for 24 hours at RT, e.g. by TGA; assay type: physicochemical; details: 'non-hygroscopic' as defined in b56: less than 0.2% (w/w) absorption of water at 80% RH for 24 hours at RT
Method: As used herein the term non-hygroscopic in relation to crystalline Branaplam and salts thereof refers to less than 0.2% (w/w) absorption of water by the crystalline Branaplam, when exposed to 80% relative humidity (“RH”) for 24 hours at room temperature (“RT”), as determined, for example, by TGA.

stability (conversion to any other solid state form) ([1]; hydrochloride): surprisingly stable | hygroscopicity [2]: non-hygroscopic
Structure (SMILES): CC1(C)CC(Oc2ccc(-c3ccc(-c4cn[nH]c4)cc3O)nn2)CC(C)(C)N1 [Branaplam hydrochloride Form C1, Branaplam hydrochloride]

stability (conversion to any other solid state form) [1]: stable
Structure (SMILES): CC1(C)CC(Oc2ccc(-c3ccc(-c4cn[nH]c4)cc3O)nn2)CC(C)(C)N1 [Branaplam Form B1, Branaplam]

stability upon heating and humidity ([1]; heating and humidity, b57 gives e.g. 100° C. for 30 minutes, 80-100% RH for 7 days): stable upon heating and humidity
Structure (SMILES): CC1(C)CC(Oc2ccc(-c3ccc(-c4cn[nH]c4)cc3O)nn2)CC(C)(C)N1 [Branaplam hydrochloride Form C3, Branaplam hydrochloride]
